Assays:
[1] = system: women with clinically definite MS; test: Clinical measures: EDSS, 9-hole peg test, PASAT, relapses; type: in vivo, human
Experimental: (§1) Subjects were evaluated using the Kurtzke's Expanded Disability Status Scale (EDSS) by the same neurologist (RV) throughout the study. At each visit the study nurse (RK) administered the paced auditory serial addition test (PASAT) and the 9-hole peg test. Blood was drawn for SMA12, cholesterol panel, blood counts and hormone levels (estriol, estradiol, estrone, LH, FSH, cortisol, progesterone). Estriol levels in serum were determined by ELISA according to manufacturer's instructions (Oxford Biomedical, Oxford, Mich.).

[2] = system: EAE mice; details: cited from earlier work
[3] = system: women with clinically definite MS; test: Serial cerebral MRI: gadolinium enhancing lesions and T2 lesion volumes
[4] = Serum estriol levels (ELISA) in oral estriol crossover trial; type: in vivo, human; details: oral estriol 8 milligrams/day, treatment and re-treatment, MS patients
Experimental: as §1

[5] = system: IFNγ in peripheral blood mononuclear cells (PBMCs); test: IFNγ levels by RT-PCR of unstimulated PBMCs derived ex vivo; type: in vivo, human
Experimental: Peripheral blood mononuclear cells (PBMCs) were isolated from heparinized venous blood and cryopreserved. PBMCs were thawed in parallel from a given patient during the two pre-treatment timepoints and the two treatment timepoints. Total RNA was isolated, DNA was removed and mRNA was reverse transcribed. Both IFN-γ and actin were amplified from the same cDNA, however, the cDNA was diluted 1:9 prior to amplification for actin. Amplification was done in 1 mM […] using IFN.γ and actin primer sequences (Life Technologies, Rockville, Md.). Complementary DNA was amplified for 35 cycles: 45″ @ 95° C., 60″ @ 54° C. and 45″ @ 72° C. PCR products were separated on a 1.5% agarose gel containing ethidium bromide and densitometry performed.

[6] = system: post-partum patient with relapsing remitting multiple sclerosis; test: Case of post-partum relapsing remitting MS patient; type: in vivo, human
Experimental: A patient was diagnosed as having relapsing remitting multiple sclerosis. Following the delivery of their first child (now […]), the patient was treated only with Copaxone and relapsed at 6 weeks. Following the delivery of their second child (now […]), the patient was again treated with Copaxone alone and again relapsed, this time at 4.5 months. Following a subsequent pregnancy, the patient was treated with 8 mg estriol/day in an attempt to prevent their post partum relapses.
Following the birth of the patient's third child (now 6 months), the patient resumed treatment with Copaxone as before. However, on day 10 post-partum they began taking estriol 8 mg/daily in an oral dosage form. […] Since monthly brain MRIs with gadolinium to detect enhancing MS lesions are more sensitive for inflammatory disease activity than relapses, the patient underwent serial monthly MRIs at post partum months 4, 5, and 6.
The patient doubled the progesterone minipill for 2 weeks to stabilize the endometrium. Otherwise no adverse events have been reported.

[7] = system: women with clinically definite MS; details: pilot clinical trial, non-pregnant female MS patients; cited from earlier work
[8] = system: DTH responses to tetanus and candida; set-up: species or system human; details: in vivo
[9] = system: DTH responses to tetanus and candida; details: cited from earlier work
[10] = system: peripheral blood mononuclear cells; details: pilot clinical trial, non-pregnant female MS patients; cited from earlier work
[11] = system: women with clinically definite MS; test: Tolerability and laboratory safety measures, estriol trial and extension phase; type: in vivo, human; details: oral estriol 8 milligrams/day
From the text: Twelve female patients with clinically definite MS were enrolled. Six had RR disease and six had SP disease. All six RR and four of six SP patients completed the entire 18 month study period. […] Of the ten patients who completed the entire study, the mean age was 44 years (range 28 to 50 years) and the mean EDSS was 3.3 (range 1.0 to 6.5). The mean EDSS score for the SP patients was 5.0 while the mean EDSS for the RR patients was 2.2. The 18 month trial was extended in RR patients whereby treatment was re-instituted. Medication. For the initial treatment phase, micronized, U.S.P. graded estriol powder (Medisca, Inc., Plattsburg, N.Y.) was put into capsules by UCLA Pharmaceutical Services.
as §1
Indeed, estrogen cannot be given for a lengthy period of time in an “unopposed” fashion in any woman with a uterus. […]

[12] = system: SJL mice with adoptive EAE; details: followed for the first 27 days; cited from earlier work
[13] = target: ERβ as compared to ERα (Homo sapiens, UniProt Q92731); details: cited from earlier work
Chain of ERβ as compared to ERα (Q92731 whole entry): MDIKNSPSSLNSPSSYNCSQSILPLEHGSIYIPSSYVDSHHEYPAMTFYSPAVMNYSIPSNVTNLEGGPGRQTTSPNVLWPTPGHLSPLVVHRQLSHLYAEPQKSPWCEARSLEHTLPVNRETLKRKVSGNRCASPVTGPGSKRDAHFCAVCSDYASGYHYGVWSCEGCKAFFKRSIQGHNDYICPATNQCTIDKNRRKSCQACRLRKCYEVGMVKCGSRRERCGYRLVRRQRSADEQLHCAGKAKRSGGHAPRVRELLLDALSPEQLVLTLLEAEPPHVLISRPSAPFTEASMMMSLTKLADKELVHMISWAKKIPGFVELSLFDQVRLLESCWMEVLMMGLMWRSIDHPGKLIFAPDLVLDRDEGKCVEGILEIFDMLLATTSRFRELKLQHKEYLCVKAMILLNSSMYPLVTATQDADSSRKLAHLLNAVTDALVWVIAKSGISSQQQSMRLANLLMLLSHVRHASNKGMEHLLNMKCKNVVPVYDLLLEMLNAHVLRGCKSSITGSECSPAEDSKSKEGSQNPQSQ

[14] = 90 day release pellets of 5 or 15 milligrams estriol
[15] = RR patients, first three months of treatment
[16] = RR patients, next three months of treatment

Question: For C[C@]12CC[C@@H]3c4ccc(O)cc4CC[C@H]3[C@@H]1CC(O)C2O (some centres unmarked) [estriol, estra-1,3,5(10)-triene-3,16,17-triol], which “Hole Peg Test Score” value ([1]; 4 RR, L, 9 mo., Estriol Treatment) is on record?
Answer: 24.3

Question: What about the “Hole Peg Test Score” value ([1]; 4 RR, L, 12 mo., Estriol Treatment) of the same compound?
Answer: 23.3

Question: And the “Hole Peg Test Score” value ([1]; 4 RR, L, 15 mo., Post Treatment)?
Answer: 23.0

Question: What about the “Hole Peg Test Score” value ([1]; 4 RR, L, 18 mo., Post Treatment) of the same compound?
Answer: 22.7

Question: And the “Hole Peg Test Score” value ([1]; 4 RR, R, 9 mo., Estriol Treatment)?
Answer: 22.5

Question: What about the “Hole Peg Test Score” value ([1]; 4 RR, R, 12 mo., Estriol Treatment) of the same compound?
Answer: 21.5

Question: What about the “Hole Peg Test Score” value ([1]; 4 RR, R, 15 mo., Post Treatment) of the same compound?
Answer: 21.0

Question: What about the “Hole Peg Test Score” value ([1]; 4 RR, R, 18 mo., Post Treatment) of the same compound?
Answer: 21.4

Question: And the “EDSS Scores” value ([1]; 4 SP, 9 mo., Estriol Treatment)?
Answer: 4.9

Question: What about the “EDSS Scores” value ([1]; 4 SP, 12 mo., Estriol Treatment) of the same compound?
Answer: 5.0

Question: What about the “EDSS Scores” value ([1]; 4 SP, 15 mo., Post Treatment) of the same compound?
Answer: 5.1

Question: And the “EDSS Scores” value ([1]; 4 SP, 18 mo., Post Treatment)?
Answer: 5.0

Question: And the “Hole Peg Test Score” value ([1]; 4 SP, L, 9 mo., Estriol Treatment)?
Answer: 22.7

Question: And the “Hole Peg Test Score” value ([1]; 4 SP, L, 12 mo., Estriol Treatment)?
Answer: 24.8

Question: What about the “Hole Peg Test Score” value ([1]; 4 SP, L, 15 mo., Post Treatment) of the same compound?
Answer: 26.7

Question: What about the “Hole Peg Test Score” value ([1]; 4 SP, L, 18 mo., Post Treatment) of the same compound?
Answer: 25.0

Question: What about the “Hole Peg Test Score” value ([1]; 4 SP, R, 9 mo., Estriol Treatment) of the same compound?
Answer: 30.2

Question: What about the “Hole Peg Test Score” value ([1]; 4 SP, R, 12 mo., Estriol Treatment) of the same compound?
Answer: 31.7

Question: And the “Hole Peg Test Score” value ([1]; 4 SP, R, 15 mo., Post Treatment)?
Answer: 29.4

Question: What about the “Hole Peg Test Score” value ([1]; 4 SP, R, 18 mo., Post Treatment) of the same compound?
Answer: 34.0

Question: And the “EDSS Scores” value ([1]; 6 RR, 9 mo., Estriol Treatment)?
Answer: 1.5

Question: And the “EDSS Scores” value ([1]; 6 RR, 12 mo., Estriol Treatment)?
Answer: 1.7

Question: And the “EDSS Scores” value ([1]; 6 RR, 15 mo., Post Treatment)?
Answer: 1.8

Question: What about the “EDSS Scores” value ([1]; 6 RR, 18 mo., Post Treatment) of the same compound?
Answer: 1.8

Question: And the “Improvement in PASAT scores” value ([1]; RR patients, during treatment as compared to baseline)?
Answer: 14.0%

Question: And the Relapses ([1]; SP patients, whole study)?
Answer: No relapses

Question: And the “EDSS and 9 Hole Peg Test scores” value ([1]; during the study)?
Answer: no significant changes

Question: And the Relapses ([1]; six RR patients, post treatment period)?
Answer: two

Question: And the Relapses ([1]; six RR patients, re-treatment period)?
Answer: none

Question: And the Relapses ([1]; six RR patients, treatment period)?
Answer: one

Question: And the EAE disease severity ([2]; 90 day release pellets of 5 or 15 milligrams estriol, before or after disease onset)?
Answer: reduced

Question: What about the Inflammation and demyelination [2, 14] of the same compound?
Answer: reduced inflammation and demyelination

Question: What about the “Production of the Th2 cytokine IL-10” value [2, 14] of the same compound?
Answer: increase production

Question: And the “Onset of clinical EAE” value ([2]; late pregnancy levels of estriol or supraphysiological doses of estradiol (5 times pregnancy levels))?
Answer: delay the onset

Question: What about the “Change in median T2 lesion volumes (lower)” value ([3]; RR group, four month re-treatment extension period) of the same compound?
Answer: 2.0%

Question: And the “Change in median T2 lesion volumes (higher)” value ([3]; RR group, six month post treatment period)?
Answer: 7.4%

Question: What about the “Change in median T2 lesion volumes” value ([3]; RR group, six month treatment period) of the same compound?
Answer: 0%

Question: And the “Decrease in median total enhancing lesion numbers” value [3, 15]?
Answer: 82%

Question: What about the “Decrease in median total enhancing lesion volumes” value [3, 15] of the same compound?
Answer: 79%

Question: What about the “Median total enhancing lesion volumes and numbers” value ([3]; RR patients, last three months of the post treatment period) of the same compound?
Answer: returning to near baseline levels

Question: What about the “Decrease in median total enhancing lesion numbers” value [3, 16] of the same compound?
Answer: 82%

Question: And the “Decrease in median total enhancing lesion volumes” value [3, 16]?
Answer: 82%

Question: What about the “Total volume and number of enhancing lesions” value ([3]; all ten MS patients (6RR, 4SP), treatment period vs six month pretreatment baseline) of the same compound?
Answer: decreased

Question: And the Serum estriol levels [4]?
Answer: approximated those observed in women who were six months pregnant

Question: What about the “Levels of IFNγ” value ([5]; four SP patients) of the same compound?
Answer: no decrease

Question: And the “Levels of IFNγ” value ([5]; six RR patients, study month 9 (three months of treatment) vs pretreatment)?
Answer: variably decreased

Question: What about the “Levels of IFNγ” value ([5]; six RR patients, study month 12 (six months of treatment) vs pretreatment) of the same compound?
Answer: significantly decreased

Question: What about the Post-partum relapses ([6]; estriol 8 mg/daily oral from day 10 post-partum, with Copaxone, third child) of the same compound?
Answer: no relapses for 6 months

Question: What about the Adverse events ([6]; estriol 8 mg/daily with Copaxone and norethindrone 0.35 mg daily) of the same compound?
Answer: increased irregular menstrual bleeding

Question: And the EDSS ([6]; estriol 8 mg/daily with Copaxone, 6 months post-partum)?
Answer: 1

Question: And the Uterine ultrasounds ([6]; month 3 and 6)?
Answer: thin, not thick, endometrium

Question: And the “Gadolinium enhancement on brain MRI” value ([6]; post partum month 4, estriol with Copaxone)?
Answer: no enhancement

Question: What about the “Gadolinium enhancement on brain MRI” value ([6]; post partum month 5, estriol with Copaxone) of the same compound?
Answer: only one small enhancing lesion

Question: And the “Gadolinium enhancement on brain MRI” value ([6]; post partum month 6, estriol with Copaxone)?
Answer: No new enhancement

Question: What about the T2 lesion load ([6]; post partum months 4-6, estriol with Copaxone) of the same compound?
Answer: stable throughout

Question: What about the “Reduction of gadolinium-enhancing lesions on serial brain MRIs” value [7] of the same compound?
Answer: > 80%

Question: And the “DTH responses to candida” value [8]?
Answer: decreased less dramatically and more variably

Question: What about the “DTH responses to tetanus” value [8] of the same compound?
Answer: significantly, P=−0.006, decreased

Question: And the “Delayed type hypersensitivity response (prototypic in vivo Th1 response)” value [9]?
Answer: reduced

Question: What about the “TH2 (IL5, IL10) cytokine production by peripheral blood mononuclear cells” value [10] of the same compound?
Answer: increased

Question: And the “Th1 (TNFα, IFNγ) cytokine production by peripheral blood mononuclear cells” value [10]?
Answer: reduced

Question: And the “Laboratory measures including LH, FSH, cortisol, progesterone, estradiol and estrone” value [11]?
Answer: no significant alterations

Question: And the Tolerability ([11]; six months)?
Answer: well tolerated with only menstrual cycle abnormalities

Question: What does the source list for C=Cc1cc(O)cc2nc(-c3ccc(O)c(F)c3)oc12 [WAY-202041]?
Answer: Effect in adoptive EAE [12]: no effect; Selectivity for ERβ as compared to ERα [13]: 200 fold

Source: patent US10610535B2 (The Regents of the University of California, priority 2005, dated 2020)
